Results reported in paper PMC7486443, “Generation of Phenothiazine with Potent Anti-TLK1 Activity for Prostate Cancer Therapy” (iScience, 2020).

What was measured:
Assay in all cases: biochemical
Design in all cases: DiscoverX KINOMEscan scanMAX competition binding panel, single concentration, percent of control; remaining binding: dose or concentration left out as unconfirmed
Conditions in all cases: KINOMEscan binding, percent of control; read-out: Table S4_SCANMAX REPORT - related to Fig. 1 / Percent Control
[1] = target: RIOK1 (Homo sapiens, UniProt Q9BRS2)
[2] = target: AURKC (Homo sapiens, UniProt Q9UQB9)
[3] = target: ACVR2B (Homo sapiens, UniProt Q13705)
[4] = target: ULK2 (Homo sapiens, UniProt Q8IYT8)
[5] = target: KIT(V559D,T670I) (Homo sapiens, UniProt P10721, T670I/V559D)
[6] = target: T1, JNK2 (Homo sapiens, UniProt P45984)
T1 construct: gene MAPK9

[7] = target: CSF1R-autoinhibited (Homo sapiens, UniProt P07333)
[8] = target: T2, JNK3 (Homo sapiens, UniProt P53779)
T2 construct: gene MAPK10

[9] = target: ERBB2 (Homo sapiens, UniProt P04626)
[10] = target: NEK9 (Homo sapiens, UniProt Q8TD19)
[11] = target: T3, CDC2L1 (Homo sapiens, UniProt P21127)
T3 construct: gene CDK11B

[12] = target: CLK4 (Homo sapiens, UniProt Q9HAZ1)
[13] = target: FYN (Homo sapiens, UniProt P06241)
[14] = target: T4, PAK7 (Homo sapiens, UniProt Q9P286)
T4 construct: gene PAK5

[15] = target: CLK1 (Homo sapiens, UniProt P49759)
[16] = target: CASK (Homo sapiens, UniProt O14936)
[17] = target: MKNK1 (Homo sapiens, UniProt Q9BUB5)
[18] = target: T5, AMPK-alpha2 (Homo sapiens, UniProt P54646)
T5 construct: gene PRKAA2

[19] = target: TGFBR2 (Homo sapiens, UniProt P37173)

Chain of RIOK1 (Q9BRS2 whole entry): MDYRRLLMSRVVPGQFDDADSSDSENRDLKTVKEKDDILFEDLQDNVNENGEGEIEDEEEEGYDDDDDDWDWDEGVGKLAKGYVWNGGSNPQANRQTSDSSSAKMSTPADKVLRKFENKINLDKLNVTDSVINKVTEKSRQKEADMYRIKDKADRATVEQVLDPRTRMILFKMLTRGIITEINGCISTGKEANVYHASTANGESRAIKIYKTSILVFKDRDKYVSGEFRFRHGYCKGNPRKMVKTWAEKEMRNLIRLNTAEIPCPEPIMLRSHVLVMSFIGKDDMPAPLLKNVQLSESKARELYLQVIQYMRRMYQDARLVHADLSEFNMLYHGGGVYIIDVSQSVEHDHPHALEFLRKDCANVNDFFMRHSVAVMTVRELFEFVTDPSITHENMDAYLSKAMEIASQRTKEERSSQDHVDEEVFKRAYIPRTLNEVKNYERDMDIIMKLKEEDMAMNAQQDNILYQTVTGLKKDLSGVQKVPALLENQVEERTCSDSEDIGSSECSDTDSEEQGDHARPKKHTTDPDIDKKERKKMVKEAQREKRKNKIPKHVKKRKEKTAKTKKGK
Chain of ULK2 (Q8IYT8 whole entry): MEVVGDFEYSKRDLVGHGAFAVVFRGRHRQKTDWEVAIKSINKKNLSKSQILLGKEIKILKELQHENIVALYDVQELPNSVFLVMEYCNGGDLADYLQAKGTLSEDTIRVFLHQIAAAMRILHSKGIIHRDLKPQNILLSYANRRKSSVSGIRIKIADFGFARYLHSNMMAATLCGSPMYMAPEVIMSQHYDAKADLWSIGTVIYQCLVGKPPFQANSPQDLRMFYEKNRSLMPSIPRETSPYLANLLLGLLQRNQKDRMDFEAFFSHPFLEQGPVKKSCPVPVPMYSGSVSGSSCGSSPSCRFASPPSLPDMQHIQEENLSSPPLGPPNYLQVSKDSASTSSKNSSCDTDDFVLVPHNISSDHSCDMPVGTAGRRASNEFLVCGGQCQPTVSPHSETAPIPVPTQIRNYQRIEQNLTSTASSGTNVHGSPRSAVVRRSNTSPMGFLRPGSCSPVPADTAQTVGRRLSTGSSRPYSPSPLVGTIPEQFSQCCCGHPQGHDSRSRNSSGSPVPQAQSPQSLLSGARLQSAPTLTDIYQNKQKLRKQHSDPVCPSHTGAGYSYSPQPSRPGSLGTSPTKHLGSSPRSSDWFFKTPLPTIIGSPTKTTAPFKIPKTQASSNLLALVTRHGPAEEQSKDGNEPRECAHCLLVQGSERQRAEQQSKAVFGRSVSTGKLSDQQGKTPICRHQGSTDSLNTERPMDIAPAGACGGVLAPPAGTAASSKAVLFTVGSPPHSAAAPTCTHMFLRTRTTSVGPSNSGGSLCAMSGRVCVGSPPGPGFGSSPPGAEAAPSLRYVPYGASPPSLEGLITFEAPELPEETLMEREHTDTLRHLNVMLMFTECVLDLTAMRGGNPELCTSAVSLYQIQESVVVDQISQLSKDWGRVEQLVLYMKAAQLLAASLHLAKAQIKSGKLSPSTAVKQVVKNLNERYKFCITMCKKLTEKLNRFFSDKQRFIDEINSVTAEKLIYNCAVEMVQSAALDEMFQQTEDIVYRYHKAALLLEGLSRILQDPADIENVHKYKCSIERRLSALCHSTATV
Chain of CASK (O14936 whole entry): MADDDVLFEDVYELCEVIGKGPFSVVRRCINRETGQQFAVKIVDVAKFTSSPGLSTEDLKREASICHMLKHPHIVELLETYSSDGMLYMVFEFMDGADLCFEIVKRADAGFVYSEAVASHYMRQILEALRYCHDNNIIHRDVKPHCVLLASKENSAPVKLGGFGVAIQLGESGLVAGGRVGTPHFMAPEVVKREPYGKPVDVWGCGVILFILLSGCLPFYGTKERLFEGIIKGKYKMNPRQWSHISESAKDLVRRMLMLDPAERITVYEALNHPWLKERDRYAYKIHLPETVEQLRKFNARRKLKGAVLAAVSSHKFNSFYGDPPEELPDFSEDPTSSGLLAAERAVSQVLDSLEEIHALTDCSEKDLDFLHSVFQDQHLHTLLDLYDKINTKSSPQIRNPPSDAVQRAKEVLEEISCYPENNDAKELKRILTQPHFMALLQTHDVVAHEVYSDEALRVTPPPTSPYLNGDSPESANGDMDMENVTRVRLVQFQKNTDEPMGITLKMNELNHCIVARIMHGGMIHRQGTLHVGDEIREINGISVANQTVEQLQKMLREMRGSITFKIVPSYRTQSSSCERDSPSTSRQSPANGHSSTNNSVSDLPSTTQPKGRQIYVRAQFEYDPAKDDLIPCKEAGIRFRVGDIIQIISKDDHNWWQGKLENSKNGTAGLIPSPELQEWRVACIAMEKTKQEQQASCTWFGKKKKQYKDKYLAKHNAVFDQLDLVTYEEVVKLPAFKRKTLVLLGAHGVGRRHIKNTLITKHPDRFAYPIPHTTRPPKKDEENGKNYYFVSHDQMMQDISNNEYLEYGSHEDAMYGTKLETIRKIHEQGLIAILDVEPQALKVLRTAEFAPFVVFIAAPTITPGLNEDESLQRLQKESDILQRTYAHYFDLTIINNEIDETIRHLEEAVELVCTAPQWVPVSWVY
T3 sequence (P21127 whole entry): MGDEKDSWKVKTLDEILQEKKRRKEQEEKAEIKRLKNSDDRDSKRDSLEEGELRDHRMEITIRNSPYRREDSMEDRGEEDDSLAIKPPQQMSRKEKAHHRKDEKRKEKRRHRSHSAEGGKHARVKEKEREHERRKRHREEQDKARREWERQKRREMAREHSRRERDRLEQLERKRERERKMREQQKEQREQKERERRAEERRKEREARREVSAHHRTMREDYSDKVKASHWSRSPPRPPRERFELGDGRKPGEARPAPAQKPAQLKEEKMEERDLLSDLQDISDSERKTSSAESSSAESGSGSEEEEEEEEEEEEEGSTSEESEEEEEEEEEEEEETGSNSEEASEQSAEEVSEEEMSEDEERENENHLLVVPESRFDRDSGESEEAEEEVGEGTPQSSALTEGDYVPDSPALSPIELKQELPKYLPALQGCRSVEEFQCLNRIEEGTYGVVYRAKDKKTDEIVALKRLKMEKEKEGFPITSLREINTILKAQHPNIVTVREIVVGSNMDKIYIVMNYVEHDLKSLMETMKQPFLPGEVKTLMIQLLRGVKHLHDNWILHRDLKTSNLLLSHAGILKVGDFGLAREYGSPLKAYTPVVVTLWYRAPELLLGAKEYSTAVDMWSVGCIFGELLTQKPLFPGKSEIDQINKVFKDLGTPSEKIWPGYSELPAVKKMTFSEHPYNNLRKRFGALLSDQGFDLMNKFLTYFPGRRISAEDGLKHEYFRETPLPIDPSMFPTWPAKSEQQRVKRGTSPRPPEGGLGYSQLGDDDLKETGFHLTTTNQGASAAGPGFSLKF
Chain of ACVR2B (Q13705 whole entry): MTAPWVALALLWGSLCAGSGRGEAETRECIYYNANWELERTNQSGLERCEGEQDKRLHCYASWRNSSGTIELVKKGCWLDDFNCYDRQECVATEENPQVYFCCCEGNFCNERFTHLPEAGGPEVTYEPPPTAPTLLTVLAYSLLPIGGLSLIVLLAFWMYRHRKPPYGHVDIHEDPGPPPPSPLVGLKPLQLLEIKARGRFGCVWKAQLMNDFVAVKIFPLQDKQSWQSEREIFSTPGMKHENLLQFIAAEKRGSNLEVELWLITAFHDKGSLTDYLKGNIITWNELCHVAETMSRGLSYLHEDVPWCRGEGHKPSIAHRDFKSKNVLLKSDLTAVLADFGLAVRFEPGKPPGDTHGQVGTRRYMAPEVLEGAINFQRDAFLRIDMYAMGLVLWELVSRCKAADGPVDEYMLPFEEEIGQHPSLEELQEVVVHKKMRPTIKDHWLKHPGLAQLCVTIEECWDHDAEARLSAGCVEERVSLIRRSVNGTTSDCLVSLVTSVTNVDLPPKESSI
T2 sequence (P53779 whole entry): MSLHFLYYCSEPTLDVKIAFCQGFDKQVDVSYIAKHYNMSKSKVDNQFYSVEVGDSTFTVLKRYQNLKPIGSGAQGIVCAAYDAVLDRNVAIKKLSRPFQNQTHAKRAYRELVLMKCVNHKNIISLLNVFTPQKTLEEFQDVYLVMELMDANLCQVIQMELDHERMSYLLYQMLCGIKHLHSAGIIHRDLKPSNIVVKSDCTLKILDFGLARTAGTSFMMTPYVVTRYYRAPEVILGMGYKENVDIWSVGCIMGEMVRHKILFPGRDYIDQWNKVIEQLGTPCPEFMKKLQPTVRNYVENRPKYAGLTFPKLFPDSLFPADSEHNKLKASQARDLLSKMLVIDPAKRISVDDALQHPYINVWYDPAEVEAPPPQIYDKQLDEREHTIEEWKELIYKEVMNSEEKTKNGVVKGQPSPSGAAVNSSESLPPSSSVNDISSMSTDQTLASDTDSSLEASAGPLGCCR
Chain of CLK1 (P49759 whole entry): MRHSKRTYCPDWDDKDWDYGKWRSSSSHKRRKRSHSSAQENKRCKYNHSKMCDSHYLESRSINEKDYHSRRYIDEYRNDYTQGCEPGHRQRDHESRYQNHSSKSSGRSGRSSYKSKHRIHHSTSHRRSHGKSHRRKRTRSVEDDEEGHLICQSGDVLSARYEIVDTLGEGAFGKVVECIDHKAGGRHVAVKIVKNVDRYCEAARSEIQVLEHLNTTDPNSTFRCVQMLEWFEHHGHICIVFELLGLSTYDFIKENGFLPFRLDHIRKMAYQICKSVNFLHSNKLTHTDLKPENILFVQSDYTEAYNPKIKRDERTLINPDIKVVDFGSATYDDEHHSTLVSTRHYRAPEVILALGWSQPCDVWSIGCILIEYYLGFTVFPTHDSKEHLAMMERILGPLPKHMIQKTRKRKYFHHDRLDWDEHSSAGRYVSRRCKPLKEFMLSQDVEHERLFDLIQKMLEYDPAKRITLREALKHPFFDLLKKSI

## c1ccc2c(c1)Sc1ccccc1N2CCN1CCOCC1 [J54]
[1]
  remaining binding: 59%
[2]
  remaining binding: 100%
[3]
  remaining binding: 86%
[4]
  remaining binding: 100%
[5]
  remaining binding: 100%
[6]
  remaining binding: 84%
[7]
  remaining binding: 85%
[8]
  remaining binding: 93%
[9]
  remaining binding: 100%
[10]
  remaining binding: 100%
[11]
  remaining binding: 100%
[12]
  remaining binding: 100%
[13]
  remaining binding: 100%
[14]
  remaining binding: 100%
[15]
  remaining binding: 85%
[16]
  remaining binding: 100%
[17]
  remaining binding: 92%
[18]
  remaining binding: 100%
[19]
  remaining binding: 99%
